Measurements as given in US5025033A, “Alkylene diamines” (Takeda Chemical Industries, Ltd., priority 1988, dated 1991).
Where a name gives a salt, the structure may show the parent alone. Read-outs that look alike come from different tables or passages of the source.

Experiments:
[1] = LD50 value, oral, mice; conditions: mouse, in vivo, p.o., ten mice per group
Description: LD50 value Ten mice were used for each group. LD50 value was estimated with the dose (mg/kg, p.o.) which induced death in 50% of mice.

[2] = test system: mice; test: General symptoms in mice (salivation, lachrymation, hypothermia); format: in vivo; parameters: key: +++: marked; ++: moderate; +: mild; non-detected; conditions: 100 mg/kg orally; observed for 4 hours
Procedure: Four mice were used for each group. Mice were placed in stainless steel cages (13×18×25 cm) and after a 1-hr habituation period the compounds were administered. […] Peripheral and central effects of the compounds were estimated with the incidences of salivation and lachrymation, and a grade of hypothermia, respectively.
The compounds which were soluble in saline were dissolved in saline and the others were suspended in 5% arabic gum solution. Each compound was administered orally (100 mg/kg).
Scorings of the symptoms were made as follows.

[3] = test system: CO2-induced ammesia in mice; test: Nootropic action: effect on CO2-induced amnesia in mice (passive avoidance response); format: in vivo, mice (male ICR); conditions: i.p., 30 min before the test, saline = 100, ** p < 0.01
Procedure: Effect of the compounds (I) and (II) on impairment of passive avoidance response, induced by exposing mice to 100% CO2 gas, was evaluated. Male ICR mice (Japan Clea) aged 5 weeks were used. The experimental apparatus consisted of two compartments, and one illuminated chamber (9×9×25 cm) was connected to dark chamber (25×25×30 cm) with a guillotine door. Each mouse was placed in the illuminated compartment and then allowed to enter the dark one. When the mouse entered the dark chamber, the door was closed and AC 0.5 mA footshock was applied to the floor grid of the dark chamber. The mouse can memorize the experience receiving the uncomfortable stimulus for a few weeks. Next, the consolidation processes of memory were disturbed by an experimental manipulation: Each mouse was placed under the hypoxic condition by being placed into a 4l desiccator filled with 100% CO2 gas, immediately after receiving the footshock in the dark chamber. When his respiratory function was stopped, the mouse was taken out from the desiccator and given artificial respiration till recovering spontaneous respiration. This procedure disturbed the consolidation of the memory (experience of footshock). On the next day, a retention test was performed whether the mouse memorizes the footshock or not. In the test, the mouse was again placed in the illuminated compartment and the latency to enter the dark compartment was measured.
The mice subjected to hypoxia entered the dark compartment with short latency, 10-20 sec. […] The ameliorating effect of compounds on the amnesia induced by hypoxia was evaluated by the latency time, and was expressed as the percent change of the mean time of the vehicle-treated control group (Table 5.). The compounds were suspended in 5% arabic gum solution, and administered intraperitoneally (i.p.) 30 min. before the test.

[4] = molecular target: T1, Acetylcholinesterase (Rattus norvegicus, UniProt P37136); test: Acetylcholinesterase inhibiting activity using (acetyl-[3H])-acetylcholine, S1 fraction of rat cerebral cortex homogenate; format: biochemical, male Wistar rat
T1 construct: the S1 fraction of a male Wistar rat cerebral cortex homogenate was used as a cholinesterase source; from tissue; host or cells: male Wistar rat cerebral cortex homogenate, S1 fraction
T1 sequence (P37136 32-614): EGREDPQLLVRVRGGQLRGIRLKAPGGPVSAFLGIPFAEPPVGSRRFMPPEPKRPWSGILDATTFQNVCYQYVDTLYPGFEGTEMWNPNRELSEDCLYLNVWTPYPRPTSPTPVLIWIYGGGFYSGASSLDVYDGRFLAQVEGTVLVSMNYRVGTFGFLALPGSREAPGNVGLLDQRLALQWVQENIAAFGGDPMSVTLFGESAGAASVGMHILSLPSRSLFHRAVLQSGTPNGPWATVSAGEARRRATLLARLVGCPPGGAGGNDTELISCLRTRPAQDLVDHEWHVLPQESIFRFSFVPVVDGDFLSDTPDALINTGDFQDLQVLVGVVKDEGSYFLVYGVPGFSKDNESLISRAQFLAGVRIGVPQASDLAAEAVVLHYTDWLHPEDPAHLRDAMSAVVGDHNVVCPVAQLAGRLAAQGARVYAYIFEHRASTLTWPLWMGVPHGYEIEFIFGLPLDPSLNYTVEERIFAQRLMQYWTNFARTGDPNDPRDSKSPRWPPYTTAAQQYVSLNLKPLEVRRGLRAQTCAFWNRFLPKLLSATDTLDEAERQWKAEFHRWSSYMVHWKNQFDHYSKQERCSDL
Procedure: The compounds according to the invention were examined for cholinesterase inhibiting activity using (acetyl-[^3 H])-acetylcholine. Thus, the S1 fraction of a male Wistar rat cerebral cortex homogenate was used as a cholinesterase source, and (acetyl-[^3 H])-acetylcholine (as substrate) and each test compound according to the invention were added and, after 30 minutes of incubation, the reaction was terminated. A toluene type scintillator was added, and the mixture was shaken, whereby the reaction product [^3 H]-acetic acid was transferred to the toluene layer. The cholinesterase activity was determined by counting said [^3 H]-acetic acid with a liquid scintillation counter.
The cholinesterase inhibiting activity of each test compound was expressed in terms of 50% inhibitory concentration (IC50).

[5] = rat cerebral cortex homogenate S1 fraction, 30 minutes of incubation, read-out: Acetylcholinesterase inhibiting activity IC50

Compound	IC50 [4, 5] [nM]	further results
CCN(CCCCCN1C(=O)c2ccc([N+](=O)[O-])cc2C1=O)Cc1ccccc1 [Compound 2-8]	150	LD50 [1]: 300 mg/kg; Hypothermia [2]: +; Lachrymation [2]: ++; Salivation [2]: +; Anti-amnesia (latency, percent change of the mean time of the vehicle-treated control group) ([3]; 3 mg/kg): 326%
CCN(CCCCCN1C(=O)c2ccc(NC(C)=O)cc2C1=O)Cc1ccccc1 [Compound 11-1]		LD50 [1]: > 300 mg/kg; Hypothermia [2]: +; Lachrymation [2]: ++; Salivation [2]: -; Anti-amnesia (latency, percent change of the mean time of the vehicle-treated control group) ([3]; 1 mg/kg): 455%; IC50 [4]: 320 nM
CC(=O)N(CCCCN(C)Cc1ccccc1)C(=O)/C=C/c1ccc([N+](=O)[O-])cc1 [Compound 15, (E)-N-Acetyl-N-[4-(N-methyl-N-benzyl)aminobutyl]-3-(4-nitrophenyl)-2-propenamide hydrochloride]	19000	
CCN(CCCCN(C(C)=O)C(=O)/C=C/c1ccc([N+](=O)[O-])cc1)Cc1ccccc1 [Compound 16-1]	7300	
CCN(CCCCCN(C(C)=O)C(=O)/C=C/c1ccc([N+](=O)[O-])cc1)Cc1ccccc1 [Compound 16-2]	560	
CCN(CCCCCCN(C(C)=O)C(=O)/C=C/c1ccc([N+](=O)[O-])cc1)Cc1ccccc1 [Compound 16-3]	3000	
CCN(CCCCCN(C(C)=O)C(=O)/C=C/c1cccc([N+](=O)[O-])c1)Cc1ccccc1 [Compound 16-4]	530	
CCN(CCCCCN(C(C)=O)C(=O)/C=C/c1ccc(Cl)cc1)Cc1ccccc1 [Compound 16-5]	2200	
CCN(CCCCCN(C(C)=O)C(=O)/C=C/c1ccc(C#N)cc1)Cc1ccccc1 [Compound 16-6]	460	
CCN(CCCCCN(C(C)=O)C(=O)/C=C/c1cccc(OC)c1)Cc1ccccc1 [Compound 16-7]	5800	
CCN(CCCCCN(C(C)=O)C(=O)/C=C/c1ccc(S(C)(=O)=O)cc1)Cc1ccccc1 [Compound 16-8]	170	
CCN(CCCCCN(C(C)=O)C(=O)/C=C/c1ccc([N+](=O)[O-])c(O)c1)Cc1ccccc1 [Compound 16-9]	350	
CCN(CCCCCN(C(C)=O)C(=O)/C=C/c1ccc([N+](=O)[O-])c(OC(C)=O)c1)Cc1ccccc1 [Compound 16-10]	280	
CCN(CCCCCN(C(C)=O)C(=O)/C=C/c1ccc(Cl)c([N+](=O)[O-])c1)Cc1ccccc1 [Compound 16-11]	410	
CCOC(=O)c1ccc2c(c1)C(=O)N(CCCCCN(CC)Cc1ccccc1)C2=O [Compound 17, Ethyl 2-[5-(N-benzyl-N-ethyl)aminopentyl]-1,3(2H)-dioxo-1H-isoindole-5-carboxylate.hydrochloride]	680	
CCN(CCCCCNC(=O)/C=C/c1ccc(Cl)c([N+](=O)[O-])c1)Cc1ccccc1OC [Compound 18-1]	220	
CCN(CCCCCNC(=O)/C=C/c1ccc([N+](=O)[O-])cc1)Cc1ccccc1OC [Compound 18-2]	290	
CCN(CCCCCNC(=O)/C=C/c1ccc(S(C)(=O)=O)cc1)Cc1ccccc1OC [Compound 18-3]	230	
CCN(CCCCCNC(=O)/C=C/c1ccc(C#N)cc1)Cc1ccccc1OC [Compound 18-4]	370	
CCN(CCCCCNC(=O)/C=C/c1ccc(OC)c(OC)c1)Cc1ccccc1OC [Compound 18-5]	430	
CCC(=O)N(CCCCCN(CC)Cc1ccccc1)C(=O)/C=C/c1ccc([N+](=O)[O-])cc1 [Compound 19-1]	4300	
CCN(CCCCCNC(=O)/C=C/c1cccc(N)c1)Cc1ccccc1 [Compound 20-1]	19000	
CCN(CCCCCN(C(C)=O)C(=O)/C=C/c1cccc(N)c1)Cc1ccccc1 [Compound 20-2]	2400	
CCN(CCCCCNC(=O)/C=C/c1ccc(N)cc1)Cc1ccccc1 [Compound 20-3]	10000	
CCN(CCCCCN(C(C)=O)C(=O)/C=C/c1cccc(NC(C)=O)c1)Cc1ccccc1 [Compound 21-1]	1800	
CCN(CCCCCNC(=O)/C=C/c1ccc(NC(C)=O)cc1)Cc1ccccc1 [Compound 21-2]	5700	
CNC(=O)Oc1ccc2c(c1)[C@]1(C)CCN(C)[C@@H]1N2C [Physostigmine, physostigmine, reference compound]		LD50 [1]: 2.6 mg/kg; Anti-amnesia (latency, percent change of the mean time of the vehicle-treated control group) ([3]; 0.3 mg/kg): 210%
